In article PMC5485063 (Chemmedchem, 2017):
≈ marks a conversion by molar mass, not a printed value.

What was measured:
[1] = High‐throughput metabolic stability assay, pooled human liver microsomes; settings: predicted hepatic metabolic (blood) clearance
A2780 cells = assay: In vitro proliferation assay, cultivated A2780 cells; type: cell-based; settings: Homo sapiens, A2780, read-out: IC50 A2780
Caco2 = assay: Bidirectional Caco2 permeability assay, 24‐well format; settings: for P app A→B: Caco2, apical to basolateral; for permeability in either direction (P app A→B and P app B→A): Caco2, incubation period 90 min, possibly precipitation and sticking to plastics
[2] = logD by reversed‐phase HPLC; settings: pH 7.5
rat hepatocytes = assay: High‐throughput metabolic stability assay, freshly harvested rat hepatocytes; settings: predicted hepatic metabolic (blood) clearance
CDK9 = CDK9 (Homo sapiens, UniProt P50750); assay: Biochemical in vitro kinase assay CDK9
Sequence of CDK9 (P50750 whole entry): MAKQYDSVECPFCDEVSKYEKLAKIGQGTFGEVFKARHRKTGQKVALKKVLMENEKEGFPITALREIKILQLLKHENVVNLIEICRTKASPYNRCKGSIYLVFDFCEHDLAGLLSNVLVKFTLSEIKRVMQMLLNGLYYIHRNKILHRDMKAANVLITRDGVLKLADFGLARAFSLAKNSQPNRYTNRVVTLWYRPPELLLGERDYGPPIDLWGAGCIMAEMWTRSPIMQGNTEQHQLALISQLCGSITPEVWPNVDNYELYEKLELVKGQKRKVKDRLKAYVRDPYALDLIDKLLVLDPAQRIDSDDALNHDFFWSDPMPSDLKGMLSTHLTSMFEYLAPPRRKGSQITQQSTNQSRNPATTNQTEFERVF
Sequence of CDK9 (O60563 whole entry partner): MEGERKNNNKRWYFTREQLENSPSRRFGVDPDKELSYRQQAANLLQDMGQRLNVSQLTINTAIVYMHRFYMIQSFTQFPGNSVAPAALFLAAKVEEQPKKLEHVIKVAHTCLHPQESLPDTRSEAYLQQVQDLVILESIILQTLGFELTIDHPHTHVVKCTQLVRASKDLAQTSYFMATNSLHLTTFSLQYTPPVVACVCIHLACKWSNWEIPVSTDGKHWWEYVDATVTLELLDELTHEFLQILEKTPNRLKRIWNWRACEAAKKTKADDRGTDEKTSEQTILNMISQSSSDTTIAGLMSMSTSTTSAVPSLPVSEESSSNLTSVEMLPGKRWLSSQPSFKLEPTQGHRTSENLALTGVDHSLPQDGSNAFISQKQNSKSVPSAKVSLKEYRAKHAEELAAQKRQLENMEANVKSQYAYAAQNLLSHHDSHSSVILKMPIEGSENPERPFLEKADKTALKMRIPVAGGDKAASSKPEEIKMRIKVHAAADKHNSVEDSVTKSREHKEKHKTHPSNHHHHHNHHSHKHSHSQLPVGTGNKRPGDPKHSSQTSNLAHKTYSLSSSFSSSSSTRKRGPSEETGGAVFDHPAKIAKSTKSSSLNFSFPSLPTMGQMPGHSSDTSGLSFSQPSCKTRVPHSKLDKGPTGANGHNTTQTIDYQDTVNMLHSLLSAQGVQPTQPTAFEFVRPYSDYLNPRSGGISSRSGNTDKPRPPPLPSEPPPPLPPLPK

[3] = Bidirectional Caco2 permeability assay, 24‐well format; settings: human
CDK2 = CDK2 (Homo sapiens, UniProt P24941); assay: Biochemical in vitro kinase assay CDK2
CDK6/CycD3 = CDK6/CycD3 (Homo sapiens, UniProt Q00534); assay: Biochemical assay at ProQinase, CDK6/CycD3
Sequence of CDK6/CycD3 (Q00534 whole entry): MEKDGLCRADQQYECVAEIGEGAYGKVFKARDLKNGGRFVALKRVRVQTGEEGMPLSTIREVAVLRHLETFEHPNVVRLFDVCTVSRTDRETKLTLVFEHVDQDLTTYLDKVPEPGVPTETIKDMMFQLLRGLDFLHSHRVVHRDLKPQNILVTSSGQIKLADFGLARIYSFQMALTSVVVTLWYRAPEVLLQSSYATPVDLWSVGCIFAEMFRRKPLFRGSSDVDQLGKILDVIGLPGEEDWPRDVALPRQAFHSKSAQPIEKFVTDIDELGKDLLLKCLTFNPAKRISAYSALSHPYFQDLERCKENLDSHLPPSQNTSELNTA
Sequence of CDK6/CycD3 (P30281 whole entry partner): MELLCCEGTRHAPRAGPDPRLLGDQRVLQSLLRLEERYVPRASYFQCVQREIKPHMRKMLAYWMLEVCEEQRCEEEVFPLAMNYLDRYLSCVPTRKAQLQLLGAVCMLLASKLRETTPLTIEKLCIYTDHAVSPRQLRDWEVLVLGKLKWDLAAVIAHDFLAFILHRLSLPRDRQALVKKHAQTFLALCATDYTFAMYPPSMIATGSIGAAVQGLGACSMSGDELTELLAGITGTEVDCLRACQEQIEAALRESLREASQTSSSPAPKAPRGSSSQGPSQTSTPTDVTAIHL

MOLM‐13 cells = assay: In vitro proliferation assay, MOLM‐13 cells; type: cell-based; settings: Homo sapiens, MOLM-13, read-out: IC50 MOLM‐13
CDK4/CycD3 = CDK4/CycD3 (Homo sapiens, UniProt P11802); assay: Biochemical assay at ProQinase, CDK4/CycD3
Sequence of CDK4/CycD3 (P11802 whole entry): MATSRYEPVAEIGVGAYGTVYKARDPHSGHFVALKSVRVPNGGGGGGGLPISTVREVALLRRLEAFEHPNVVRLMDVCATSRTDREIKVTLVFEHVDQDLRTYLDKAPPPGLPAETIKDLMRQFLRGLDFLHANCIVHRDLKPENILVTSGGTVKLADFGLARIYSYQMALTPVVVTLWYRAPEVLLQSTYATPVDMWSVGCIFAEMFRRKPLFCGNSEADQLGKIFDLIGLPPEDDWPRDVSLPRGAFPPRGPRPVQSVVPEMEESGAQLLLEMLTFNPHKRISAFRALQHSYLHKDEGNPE
Sequence of CDK4/CycD3 (P30281 whole entry partner): as the sequence (P30281 whole entry partner) above

[4] = target: T1, wild‐type estrogen receptor 1 (ESR1) (Homo sapiens, UniProt P03372); assay: Wild‐type estrogen receptor 1; type: cell-based
T1 sequence (P03372 1-595): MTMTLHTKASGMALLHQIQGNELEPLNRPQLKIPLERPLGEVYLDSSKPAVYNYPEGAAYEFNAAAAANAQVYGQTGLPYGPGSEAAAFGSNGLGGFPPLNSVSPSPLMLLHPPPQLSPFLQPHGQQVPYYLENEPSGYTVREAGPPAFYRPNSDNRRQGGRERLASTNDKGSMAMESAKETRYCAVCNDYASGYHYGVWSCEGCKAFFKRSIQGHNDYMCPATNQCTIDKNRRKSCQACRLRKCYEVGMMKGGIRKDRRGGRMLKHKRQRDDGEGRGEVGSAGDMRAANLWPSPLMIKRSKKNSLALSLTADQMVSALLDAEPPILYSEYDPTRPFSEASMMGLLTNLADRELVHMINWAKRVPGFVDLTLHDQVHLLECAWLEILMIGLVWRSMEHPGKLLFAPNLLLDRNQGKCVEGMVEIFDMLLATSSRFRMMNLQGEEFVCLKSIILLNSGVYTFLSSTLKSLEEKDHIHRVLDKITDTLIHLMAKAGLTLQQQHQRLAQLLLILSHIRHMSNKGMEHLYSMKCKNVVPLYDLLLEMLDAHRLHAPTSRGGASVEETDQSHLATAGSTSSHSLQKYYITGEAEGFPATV

MCF7 cells = assay: In vitro proliferation assay, human MCF7 cells stimulated with 17β‐estradiol; type: cell-based; settings: MCF7, read-out: IC50 MCF7 E2 stim.
[5] = estimated; cited from earlier work

Row | CLb hLMs [1] [mL/min/kg] | IC50 (A2780 cells) [nM] | P app A→B (Caco2) [×10⁻⁶ cm/s] | chromatographic logD [2] | CLb rHep (rat hepatocytes) [mL/min/kg] | IC50 (CDK9) [nM] | efflux ratio at 90 min ([3]; Caco-2) | IC50 (CDK2) [nM] | IC50 (CDK6/CycD3) [nM] | IC50 (MOLM‐13 cells) [nM] | IC50 (CDK4/CycD3) [nM] | efflux ratio at 90 min ([3]; Caco-2, ER, Caco2 efflux ratio, P app B→A/P app A→B) | ER (Caco2; Caco2 efflux ratio, P app B→A/P app A→B) | IC50 [4] [nM] | permeability in either direction (P app A→B and P app B→A) (Caco2) | IC50 (MCF7 cells) [nM] | Compound | aqueous solubility [5] [µg/mL]
1 | 4 | 131 | 0.1 | 1.3 | 28.3 |  |  |  |  |  |  |  |  |  |  |  | O=C(NC1CCNCC1)c1n[nH]cc1NC(=O)c1c(Cl)cccc1Cl [AT7519, reference compound] | 
2 | 1 | 351 | 0.14 | 1.6 | 1 | 124 | 37 | 522 |  |  |  |  |  |  |  |  | N=S1(=O)CCC(NC(=O)c2n[nH]cc2NC(=O)c2c(Cl)cccc2Cl)CC1 (stereo not drawn) [compound 15, 4‐(2,6‐Dichlorobenzamido)‐N‐(1‐imino‐1‐oxo‐1λ^6‐thian‐4‐yl)‐1H‐pyrazole‐3‐carboxamide] | 
3 | 4 |  | 2.5 | 2 | 18.3 |  | 9.1 |  | 240 | 128 | 101 |  |  |  |  |  | CC(=O)c1c(C)c2cnc(Nc3ccc(N4CCS(=N)(=O)CC4)cn3)nc2n(C2CCCC2)c1=O [compound 23, 4‐[6‐({6‐Acetyl‐8‐cyclopentyl‐5‐methyl‐7‐oxo‐7 H,8H‐pyrido[2,3‐d]pyrimidin‐2‐yl}amino)pyridin‐3‐yl]‐1‐imino‐1λ^6‐thiomorpholin‐1‐one] | 
4 | 3.5 |  | 2.2 | 1.8 | 18.3 |  | 11 |  | > 1000 | 1150 | 216 |  |  |  |  |  | CN(C)C(=O)c1cc2cnc(Nc3ccc(N4CCS(=N)(=O)CC4)cn3)nc2n1C1CCCC1 [compound 26, 7‐Cyclopentyl‐2‐{[5‐(1‐imino‐1‐oxo‐1λ^6‐thiomorpholin‐4‐yl)pyridin‐2‐yl]amino}‐N,N ‐dimethyl‐7H‐pyrrolo[2,3‐d]pyrimidine‐6‐carboxamide] | 
5 | 7.17 |  |  | 2 | 35 |  |  |  |  |  |  | > 200 | 288 |  |  |  | CCCc1nc(C)c2c(=O)[nH]c(-c3cc(S(=O)(=O)N4CCS(=N)(=O)CC4)ccc3OCC)nn12 [compound 29, 4‐(4‐Ethoxy‐3‐{5‐methyl‐4‐oxo‐7‐propyl‐3 H,4H‐imidazo[4,3‐f][1,2,4]triazin‐2‐yl}benzenesulfonyl)‐1‐imino‐1λ^6‐thiomorpholin‐1‐one] | 
6 | 18.3 |  |  | 3.8 | 58.3 |  |  |  |  |  |  |  |  | 1.8 | no permeability in either direction | 7.1 | C[C@]12CC[C@@H]3c4ccc(O)cc4C[C@@H](CCCCCCCCC[S@](=N)(=O)CCCC(F)(F)C(F)(F)F)[C@H]3[C@@H]1CC[C@@H]2O [compound 33, 7α‐{9‐[(S)‐(4,4,5,5,5‐Pentafluoropentyl)sulfonimidoyl]nonyl}estra‐1,3,5(10)‐triene‐3,17β‐diol] | 
7 | 20 |  |  | 4.2 | 58.3 |  |  |  |  |  |  |  |  |  | no permeability in either direction | 9.2 | C[C@]12CC[C@@H]3c4ccc(O)cc4C[C@@H](CCCCCCCCC[S+]([O-])CCCC(F)(F)C(F)(F)F)[C@H]3[C@@H]1CC[C@@H]2O (stereo partly drawn) [fulvestrant, reference compound] | ~0.01 (≈ 0.0165 µM)
8 | 7.5 |  | 7 | 1.9 | 21.7 |  |  |  |  | 41 |  |  |  |  |  |  | CC(=O)c1c(C)c2cnc(Nc3ccc(N4CCNCC4)cn3)nc2n(C2CCCC2)c1=O [palbociclib, reference compound] | 
9 | 8.67 |  | 13.5 | 1.7 | 38.3 |  |  |  |  | 89 |  |  |  |  |  |  | CN(C)C(=O)c1cc2cnc(Nc3ccc(N4CCNCC4)cn3)nc2n1C1CCCC1 [ribociclib, reference compound] | 
10 | 18.3 |  | 20.6 | 2.6 | 50 |  |  |  |  |  |  |  |  |  |  |  | CCCc1nc(C)c2c(=O)[nH]c(-c3cc(S(=O)(=O)N4CCN(CC)CC4)ccc3OCC)nn12 [vardenafil, reference compound] | 
